Experimental data as given in US20250102494A1, “COMPOSITION FOR PREDICTING OXALIPLATIN DRUG EFFICACY, AND USE THEREOF” (SAMSUNG LIFE PUBLIC WELFARE FOUNDATION, priority 2022, published 2025).

Assays:
Format in all cases: cell-based
HCT15 cells = experiment: ATPlite cell viability after oxaliplatin, HCT15 cells in organoid culture media
Protocol: (§1) Advanced DMEM/F12+++ (hereinafter referred to as “Ad/DF+++”) was used to produce colorectal cancer organoids. Ad/DF+++ was refrigerated at 4° C. until use, and was used in a cold state during cell washing. Ad/DF+++ medium containing the reagents shown in Table 1 below along with Ad/DF 1× (Gibco) was prepared.
(§2) After preparing the Ad/DF+++ medium containing the above reagents, an appropriate amount of Matrigel (Corning #356231) was added so that the ratio between Matrigel and cells suspended in the Ad/DF+++ medium was 7:3. Then, the cells were plated on low attachment well plates at an appropriate density. The density and the type and number of well plates were determined according to the characteristics of each cell type. […]
(§3) If the organoids were expanded as needed for the experiment, the medium was carefully removed, taking care not to touch the Matrigel. […] After suspending the pellet in Ad/DF+++, the cells were counted and diluted with medium according to the required number of cells. […]
(§4) Four hours after the medium change, the cells were treated with oxaliplatin, 5-FU, Irinotecan, and folinic acid. Five days after drug treatment, intracellular ATP expression was determined using the ATPlite assay kit (PerkinElmer), and the data were expressed in terms of cell viability, IC50, and AUC. […]

SW620 cells = experiment: ATPlite cell viability after oxaliplatin, SW620 cells in organoid culture media
Protocol: as §1
(§5) After preparing the Ad/DF+++ medium containing the above reagents, an appropriate amount of Matrigel (Corning #356231) was added so that the ratio between Matrigel and cells suspended in the Ad/DF+++ medium was 7:3. Then, the cells were plated on low attachment well plates at an appropriate density. The density and the type and number of well plates were determined according to the characteristics of each cell type. The medium was prepared according to the composition shown in Table 2 below, and the cells were cultured (expanded) until the required level was reached while the medium was replaced every 3 to 4 days.
If the organoids were expanded as needed for the experiment, the medium was carefully removed, taking care not to touch the Matrigel. The cells were separated from the Matrigel by pipetting about 20 times with 1 ml of cold Ad/DF+++. The cells in 1 to 4 wells per 6-well plate were collected in one 50 ml tube. If cells are collected from more than 4 wells into one tube, the Metrigel may not be washed properly. For this reason, the cells were placed in several tubes. Thereafter, Ad/DF+++ was poured to 20 to 50 ml of each tube, followed by centrifugation at 400 g for 3 minutes at 4° C. The cells were dissociated with 1 to 2 mL of TrypLE™ Express Enzyme (Gibco, 1264-013), transferred to low-attachment 24 well plates, and then treated with 10 μM of Y-27632. Next, the cells were cultured in a CO2 incubator for 5 minutes at 37° C. After pipetting about 20 times, whether the cells would be dissociated into single cells was checked by microscopic observation. If the cells were not dissociated into single cells, the culture under CO2 and pipetting processes were repeated. […] After suspending the pellet in Ad/DF+++, the cells were counted and diluted with medium according to the required number of cells. […]
(§6) Four hours after the medium change, the cells were treated with oxaliplatin, 5-FU, Irinotecan, and folinic acid. Five days after drug treatment, intracellular ATP expression was determined using the ATPlite assay kit (PerkinElmer), and the data were expressed in terms of cell viability, IC50, and AUC.
(§7) As the standard for confirming that cells are sensitive to the drug, the response of the cells to the drug was assumed to be 100%, and the luminescence value of surviving cells after drug treatment was analyzed and compared with the quantified drug response value. […]

[1] = tested on: 166T colorectal cancer patient-derived organoids; experiment: Cell viability after oxaliplatin, 2D and 3D culture of patient-derived organoids; details: for cell viability, Ex1 medium compared with control (CRC): FIGS. 26 and 27
Protocol: as §6
In order to evaluate the difference between 2D culture and 3D culture performed using the above medium compositions, 166T CoLvM patient-derived organoids were cultured under 2D culture conditions and 3D culture conditions.

LoVo cells = experiment: ATPlite cell viability after oxaliplatin, LoVo cells in organoid culture media
Protocol: as §1, §2, §3, §4

HT29 cells = experiment: ATPlite cell viability after oxaliplatin, HT29 cells in organoid culture media
Protocol: as §1, §2, §3, §4

LS147T cells = experiment: ATPlite cell viability after oxaliplatin, LS147T cells in organoid culture media
Protocol: as §1, §5
(§8) If the organoids were expanded as needed for the experiment, the medium was carefully removed, taking care not to touch the Matrigel. The cells were separated from the Matrigel by pipetting about 20 times with 1 ml of cold Ad/DF+++. The cells in 1 to 4 wells per 6-well plate were collected in one 50 ml tube. If cells are collected from more than 4 wells into one tube, the Metrigel may not be washed properly. For this reason, the cells were placed in several tubes. […] After suspending the pellet in Ad/DF+++, the cells were counted and diluted with medium according to the required number of cells. […]
as §6, §7

Total Cell Line = experiment: Average oxaliplatin AUC over all colorectal cancer cell lines
Protocol: as §6
(§9) As the standard for confirming that cells are sensitive to the drug, the response of the cells to the drug was assumed to be 100%, and the luminescence value of surviving cells after drug treatment was analyzed and compared with the quantified drug response value.
(§10) Based on the assumption that the factor that increases the resistance of the organoids to oxaliplatin is an activator or inhibitor that changes the phenotype, the organoids prepared by excluding some or all of activators and inhibitors as shown in Table 4 below were treated with oxaliplatin.
(§11) In order to confirm reduced resistance to oxaliplatin, ECT116, RKO, SW620, and LS147T cell lines, which are highly sensitive to oxaliplatin, and HT29, HTC15, CoLo205, and Lovo cell lines, which are low sensitive to oxaliplatin, were used.
(§12) When the above results were combined with the results shown by cell lines with high sensitivity to oxaliplatin and cell lines with low sensitivity to oxaliplatin, the result data shown in FIGS. 23 and 24 and Tables 5 to 7 below were obtained.

[2] = tested on: Sensitive Cell Line (HCT116, RKO, SW620, LS147T); experiment: Average oxaliplatin AUC over sensitive colorectal cancer cell lines
Protocol: as §6, §9, §10, §11, §12

RKO cells = experiment: ATPlite cell viability after oxaliplatin, RKO cells in organoid culture media
Protocol: as §1, §5, §8, §6, §7

O=C1[O][Pt]2([NH][C@@H]3CCCC[C@H]3[NH]2)[O]C1=O [oxaliplatin]
cell viability (HCT15 cells; Ex2 and Ex4, log [oxaliplatin] value 2, FIG. 18): ≥ 50%
AUC value, Ex1 to Ex4 compared (HCT15 cells; FIG. 17): decreased under the organoid culture conditions of Ex2
AUC value, Ex2 compared with other organoid culture conditions (SW620 cells; SW620, FIG. 9): lower in the organoid culture conditions of Ex2
AUC value, Ex3 and Ex4 compared with Ex1 (SW620 cells; SW620, FIG. 9): no significant difference in AUC values from Ex1
IC50 value, Ex2 compared with Ex1 (SW620 cells; SW620, FIG. 10): lower in Ex2 than in Ex1
cell viability (SW620 cells; SW620 in Ex2, log [oxaliplatin] value 1, FIG. 11): 50%
cell viability, Ex2 medium compared with control ([1]; 2D and 3D culture): cell viabilities similar to those of the control group
cell viability, Ex1 medium compared with control (CRC) ([1]; 2D culture): cell viability similar to that of the control (CRC) cell line
cell viability, Ex1 medium compared with control (CRC) ([1]; 3D culture): higher cell viability than that of the control (CRC) cell line
cell viability (LoVo cells; LoVo organoids, log [oxaliplatin] values approaching 2, FIG. 22): ≥ 50%
AUC values of Ex2 to Ex4 compared with Ex1 (LoVo cells; LoVo, FIG. 21): higher than that of Ex1
AUC value, Ex1 to Ex4 compared (HT29 cells; HT29, FIG. 15): Ex1 to Ex3 showed similar AUC values, but Ex4 showed slightly lower AUC values than Ex1 to Ex3
cell viability versus oxaliplatin concentration (HT29 cells; HT29 cell line and Ex1 to Ex4, FIG. 16): did not decrease under all the culture conditions
AUC value, Ex2 compared with other organoid culture conditions (LS147T cells; FIG. 12): lower in the organoid culture conditions of Ex2
AUC value, Ex3 and Ex4 compared with Ex1 (LS147T cells; FIG. 12): no difference in AUC values from Ex1
IC50 value, Ex2 compared with Ex1 (LS147T cells; FIG. 13): higher in Ex2 than in Ex1
EX1_AUC (Total Cell Line; average over total cell lines, Ex1 medium): 408.05
EX2_AUC (Total Cell Line; average over total cell lines, Ex2 medium): 384.32
normal_AUC (Total Cell Line; average over total cell lines, normal cell-line culture): 330.83
EX1 − EX2 (AUC difference) (Total Cell Line; total cell lines): 23.73
EX1_AUC ([2]; average over sensitive cell lines, Ex1 medium (inhibitors and activators)): 396.08
EX2_AUC ([2]; average over sensitive cell lines, Ex2 medium (no inhibitors, no activators)): 347.78
normal_AUC ([2]; average over sensitive cell lines, normal cell-line culture): 274.55
sensitivity to oxaliplatin, Ex2 compared with Ex1 ([2]; cell lines with high sensitivity, FIG. 23): higher in Ex2 without both inhibitors and activators than in Ex1
EX1 − EX2 (AUC difference) ([2]; sensitive cell lines): 48.30
AUC value, Ex1 to Ex4 compared (RKO cells; FIG. 6): the lowest in the organoid culture conditions of Ex2
IC50 value, Ex2 compared with Ex1 (RKO cells; FIG. 7): significantly lower in Ex2 than in Ex1
cell viability versus oxaliplatin concentration (RKO cells; MEM control, Ex1, Ex2, FIG. 8): fastest decrease in cell viability, followed by Ex2
